Source: US10688093B2, “Methods, compositions, and uses of novel Fyn kinase inhibitors” (priority 2015, dated 2020)

molecular target: full-length recombinant human FYN A (Homo sapiens (Human), UniProt P06241); assay: ADP-Glo Kinase Assay of FYN kinase inhibition; format: biochemical; details: primary screen, initial compounds
Procedure, shortened: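 ADP-Glo read-out of peptide phosphorylation after 90 min RT with 12.5 pmol ATP and 100 pg 12-mer substrate. Enzyme was N-GST full-length human FYN A from insect cells, 3 pg, pre-incubated 30 min with compound, 10 points from 10 μM top, 3-fold steps; IC50 from curve.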

Sequence of full-length recombinant human FYN A (P06241 whole entry): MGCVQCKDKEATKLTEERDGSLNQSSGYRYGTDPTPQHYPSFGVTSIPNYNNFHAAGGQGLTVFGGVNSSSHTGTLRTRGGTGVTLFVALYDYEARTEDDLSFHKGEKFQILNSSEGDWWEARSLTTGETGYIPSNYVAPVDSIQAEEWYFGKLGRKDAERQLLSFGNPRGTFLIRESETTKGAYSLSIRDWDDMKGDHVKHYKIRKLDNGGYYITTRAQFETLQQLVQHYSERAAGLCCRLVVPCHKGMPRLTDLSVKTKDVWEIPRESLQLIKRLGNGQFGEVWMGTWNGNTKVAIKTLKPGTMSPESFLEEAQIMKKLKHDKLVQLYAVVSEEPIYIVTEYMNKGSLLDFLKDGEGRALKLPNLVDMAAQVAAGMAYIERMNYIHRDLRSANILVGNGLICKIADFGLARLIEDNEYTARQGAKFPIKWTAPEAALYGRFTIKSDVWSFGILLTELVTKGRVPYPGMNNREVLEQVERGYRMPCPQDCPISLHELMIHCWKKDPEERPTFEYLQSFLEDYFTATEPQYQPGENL

Q: With `c1cncc(-c2cnc3sc(NCC4CCOCC4)nn23)c1` [Compound 586, 5-(3-pyridyl)-N-(tetrahydropyran-4-ylmethyl) imidazo[2,1-b] [1,3,4]thiadiazol-2-amine] as the molecule, how does the IC50 read?
A: 4.85 µM

Q: Which IC50 does the source give for `COc1cncc(-c2cnc3sc(NCC4CCOCC4)nn23)c1` [Compound 587, 5-(5-methoxy-3-pyridyl)-N-(tetrahydro-pyran-4-ylmethyl)imidazo [2,1-d][1,3,4] thiadiazol-2-amine] here?
A: 0.384 µM

Q: With `COc1ccc(CNc2nn3c(-c4cncc(OC)c4)cnc3s2)cc1` [Compound 588, N-[(4-methoxyphenyl)methyl]-5-(5-methoxy-3-pyridyl)imidazo [2,1-3][1,3,4] thiadiazol-2-amine] as the molecule, how does the IC50 read?
A: 9.65 µM

Q: For `Cc1ccccc1CNc1nn2c(-c3cccnc3)cnc2s1` [Compound 589, N-(o-tolylmethyl)-5-(3-pyridyl) imidazo[2,1-b] [1,3,4]thiadiazol-2-amine], which IC50 is on record?
A: 1.08 µM

Q: With `CN1CCN(c2ccc(Nc3cc4c(cn3)cc(-c3cccc(C(F)(F)F)c3)n4C)cc2)CC1` [Compound 590, 1-methyl-N-[4-(4-methylpiperazin-1-yl)phenyl]-2-[3-(trifluoromethyl)phenyl]pyrrolo [3,2-c]pyridin-6-amine] as the molecule, how does the IC50 read?
A: 30 µM

Q: For `Cn1c(-c2cccc(C(F)(F)F)c2)cc2cnc(Nc3ccncn3)cc21` [Compound 591, 1-methyl-N-pyrimidin-4-yl-2-[3-(trifluoro-methyl)phenyl] pyrrolo[3,2-c]pyridin-6-amine], which IC50 is on record?
A: 16.8 µM

Q: Which IC50 does the source give for `CN1CCN(c2ccc(Nc3cc4c(cn3)cc(-c3cccc(F)c3)n4C)cc2)CC1` [Compound 592, 2-(3-fluorophenyl)-1-methyl-N-[4-(4-methylpiperazin-1-yl)phenyl] pyrrolo[3,2-c]pyridin-6-amine] here?
A: 12.9 µM

Q: For `Cn1c(-c2cccc(F)c2)cc2cnc(Nc3ccncn3)cc21` [Compound 593, 2-(3-fluorophenyl)-1-methyl-N-pyrimidin-4-yl-pyrrolo[3,2-c]pyridin-6-amine], which IC50 is on record?
A: 9.09 µM

Q: With `NC1=C(c2nc3ccccc3[nH]2)C(=O)CN1c1ccc2c(c1)OCO2` [Compound 594, 5-amino-4-(1H-benzimidazol-2-yl)-1-(1,3-benzodioxol-5-yl)-2H-pyrrol-3-one] as the molecule, how does the IC50 read?
A: 4.07 µM

Q: Which IC50 does the source give for `CN1CCN(c2ccc(Nc3nccc4[nH]c(-c5ccc(C(=O)N(C)C)cc5)cc34)cc2)CC1` [Compound 595, N,N-dimethyl-4-[4-[4-(4-methylpiperazin-1-yl)anilino]-1H-pyrrolo[3,2-c]pyridin-2-yl]benzamide] here?
A: 7.04 µM

Q: With `COc1cc(OC)cc(-c2cc3c(N4CCOCC4)nccc3[nH]2)c1` [Compound 596, 4-[2-(3,5-dimethoxy-phenyl)-1H-pyrrolo[3,2-c]pyridin-4-yl]morpholine] as the molecule, how does the IC50 read?
A: 30 µM

Q: For `COc1ccccc1-c1cc2c(Nc3ccc(NC(C)=O)cc3)nccc2[nH]1` [Compound 597, N-[4-[[2-(2-methoxyphenyl)-1H-pyrrolo[3,2-c]pyridin-4-yl]amino]phenyl] acetamide], which IC50 is on record?
A: 30 µM

Q: For `COc1ccccc1-c1cc2c(Nc3cccc(C(F)(F)F)c3)nccc2n1C` [Compound 598, 2-(2-methoxyphenyl)-1-methyl-N-[3-(trifluoromethyl)phenyl]pyrrolo [3,2-c]pyridin-4-amine], which IC50 is on record?
A: 30 µM

Q: For `COc1ccc(OC)c(-n2c(-c3ccc(F)cc3)cn3c4c(=O)[nH]c(=O)n(C)c4nc23)c1` [Compound 599, 8-(2,5-dimethoxy-phenyl)-7-(4-fluorophenyl)-1-methyl-3H-imidazo [1,2-g]purine-2,4-dione], which IC50 is on record?
A: 18.4 µM

Q: Which IC50 does the source give for `COC(=O)c1c(N)n(-c2cccc(O)c2)c2nc3ccccc3nc12` [Compound 600, methyl 2-amino-1-(3-hydroxy-phenyl)pyrrolo [3,2-b]quinoxaline-3-carboxylate] here?
A: 2.26 µM

system: not given; assay: not given; details: Fyn knockout strains; cited from earlier work

Q: With `CN(C)S(=O)(=O)c1ccc2c(c1)/C(=C/c1cc3c([nH]1)CCCC3)C(=O)N2` [SU6656] as the molecule, how does the “lipid utilization and energy utilization” value read?
A: no increase in either parameter

same assay, conditions: treated mice relative to untreated control mice; cited from earlier work

Q: Which fat mass does the source give for `CN(C)S(=O)(=O)c1ccc2c(c1)/C(=C/c1cc3c([nH]1)CCCC3)C(=O)N2` [SU6656] here?
A: significantly reduced
